Legend:
H3K9me2 in HCT116 cells = test: HCT116 H3K9me2 in-cell western assay; type: cell-based; settings: Homo sapiens, HCT-116, 72 h, HCT116 cells, 72 hours incubation; read-out: H3K9me2 ICW IC50
Summary of the method: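 H3K9me2 signal (800 nm) was normalized to DRAQ5 DNA stain (700 nm) in an in-cell western. Cells were fixed with paraformaldehyde and probed overnight at 4° C with primary antibody.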

hERG potassium channels = hERG potassium channels (Homo sapiens, UniProt Q12809); test: In vitro hERG assay (SyncroPatch whole-cell recording); settings: room temperature
Method: CHO cells stably expressing hERG potassium channels from Sophion Biosciences were used for this test. The cells were cultured in a humidified and air-controlled (5% CO2) incubator at 37° C.
The CHO hERG Culture Medium consisted of 500 mL Ham's F12 (Invitrogen), 50 mL FBS (HyClone), 1 mL G418/Geneticin (Invitrogen, and 1 mL Hygromycin B (Invitrogen)
The CHO cells which were at least two days after plating and more than 75% confluent would be used for experiments. Before testing, cells were harvested using TrypLE and resuspended in the physiological solution at the room temperature.
For the electrophysiological recordings the following solutions were used (Table 5). The physiological solution and external solution were prepared at least one month. The intracellular solution was prepared in batches aliquoted, and stored at 4° C. until used.
Test compounds were dissolved in 100% DMSO to obtain stock solutions for different test concentrations. Then the stock solutions were further diluted into external solution to achieve final concentrations for testing. Visual check for precipitation was conducted before testing. Final DMSO concentration in external solution was not more than 0.30% for the test compounds.
Voltage command protocol: From this holding potential of −80 mV, the voltage was first stepped to −50 mV for 80 ms for leak subtraction, and then stepped to +20 mV for 4800 ms to open hERG channels. After that, the voltage was stepped back down to −50 mV for 5000 ms, causing a “rebound” or tail current, which was measured and collected for data analysis. Finally, the voltage was stepped back to the holding potential (−80 mV, 1000 ms). This voltage command protocol was repeated every 20000 msec. This command protocol was performed continuously during the test (vehicle control and test compound).
hERG SyncroPatch assay was conducted at room temperature. The Setup, Prime Chip, Catch and Seal Cells, Amplifier Settings, Voltage and Application Protocols were established with Biomek Software (Nanion). One addition of 40 μL of the vehicle was applied, followed by 300s for a baseline period. Then the doses of the compounds were added with 40 μL. The exposure of test compound at each concentration was no less than 300s. […] Five concentrations (0.30 μM, 1.00 μM, 3.00 μM, 10.00 μM and 30.00 μM) were tested for each compound. Minimum 2 replicates per concentration were obtained.
Within each well recording, percent of control values were calculated for each test compound concentration current response based on peak current in presence of reference control (current response/peak current)×100%. The Dose-Response curves were fit to the standard Hill equation as shown below:
Where X is the logarithm of concentration, Ipost cpd/Ipre cpa is the normalized peak current amplitude, Top is 1 and Bottom is equal to 0.
Curve-fitting and IC50 calculations were performed by GraphPad Prism 5.0.

human EHMT1 982-1266 = target: T1, human EHMT1 982-1266 (Homo sapiens, UniProt Q9H9B1); test: EHMT1 enzyme assay on histone peptide substrate (3H-SAM SPA); settings: EHMT1 IC50, recombinant human EHMT1 982-1266, histone peptide substrate
T1 sequence (Q9H9B1 982-1266): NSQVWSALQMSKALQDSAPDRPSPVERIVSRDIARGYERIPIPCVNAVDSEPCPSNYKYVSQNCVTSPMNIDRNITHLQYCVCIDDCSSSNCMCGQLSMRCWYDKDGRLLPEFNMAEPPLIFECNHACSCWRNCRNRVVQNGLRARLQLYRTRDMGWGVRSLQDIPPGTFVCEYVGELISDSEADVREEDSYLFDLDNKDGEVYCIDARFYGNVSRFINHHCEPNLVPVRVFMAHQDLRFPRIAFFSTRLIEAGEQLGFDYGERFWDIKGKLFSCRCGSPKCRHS

human EHMT2 913-1193 = target: T2, human EHMT2 913-1193 (Homo sapiens, UniProt Q96KQ7); test: EHMT2 enzyme assay on histone peptide substrate (3H-SAM SPA); settings: EHMT2 IC50, recombinant human EHMT2 913-1193, histone peptide substrate
T2 sequence (Q96KQ7 913-1193): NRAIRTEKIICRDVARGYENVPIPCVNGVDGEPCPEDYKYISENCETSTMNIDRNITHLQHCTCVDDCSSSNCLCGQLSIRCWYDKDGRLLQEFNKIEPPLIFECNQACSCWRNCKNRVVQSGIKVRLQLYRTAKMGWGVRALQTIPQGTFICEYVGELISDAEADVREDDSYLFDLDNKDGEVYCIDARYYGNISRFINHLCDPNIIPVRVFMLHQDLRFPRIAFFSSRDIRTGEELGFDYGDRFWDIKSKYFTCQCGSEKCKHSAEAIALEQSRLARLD

[1] = hERG IC50, CHO cells stably expressing hERG

Chain of hERG potassium channels (Q12809 whole entry): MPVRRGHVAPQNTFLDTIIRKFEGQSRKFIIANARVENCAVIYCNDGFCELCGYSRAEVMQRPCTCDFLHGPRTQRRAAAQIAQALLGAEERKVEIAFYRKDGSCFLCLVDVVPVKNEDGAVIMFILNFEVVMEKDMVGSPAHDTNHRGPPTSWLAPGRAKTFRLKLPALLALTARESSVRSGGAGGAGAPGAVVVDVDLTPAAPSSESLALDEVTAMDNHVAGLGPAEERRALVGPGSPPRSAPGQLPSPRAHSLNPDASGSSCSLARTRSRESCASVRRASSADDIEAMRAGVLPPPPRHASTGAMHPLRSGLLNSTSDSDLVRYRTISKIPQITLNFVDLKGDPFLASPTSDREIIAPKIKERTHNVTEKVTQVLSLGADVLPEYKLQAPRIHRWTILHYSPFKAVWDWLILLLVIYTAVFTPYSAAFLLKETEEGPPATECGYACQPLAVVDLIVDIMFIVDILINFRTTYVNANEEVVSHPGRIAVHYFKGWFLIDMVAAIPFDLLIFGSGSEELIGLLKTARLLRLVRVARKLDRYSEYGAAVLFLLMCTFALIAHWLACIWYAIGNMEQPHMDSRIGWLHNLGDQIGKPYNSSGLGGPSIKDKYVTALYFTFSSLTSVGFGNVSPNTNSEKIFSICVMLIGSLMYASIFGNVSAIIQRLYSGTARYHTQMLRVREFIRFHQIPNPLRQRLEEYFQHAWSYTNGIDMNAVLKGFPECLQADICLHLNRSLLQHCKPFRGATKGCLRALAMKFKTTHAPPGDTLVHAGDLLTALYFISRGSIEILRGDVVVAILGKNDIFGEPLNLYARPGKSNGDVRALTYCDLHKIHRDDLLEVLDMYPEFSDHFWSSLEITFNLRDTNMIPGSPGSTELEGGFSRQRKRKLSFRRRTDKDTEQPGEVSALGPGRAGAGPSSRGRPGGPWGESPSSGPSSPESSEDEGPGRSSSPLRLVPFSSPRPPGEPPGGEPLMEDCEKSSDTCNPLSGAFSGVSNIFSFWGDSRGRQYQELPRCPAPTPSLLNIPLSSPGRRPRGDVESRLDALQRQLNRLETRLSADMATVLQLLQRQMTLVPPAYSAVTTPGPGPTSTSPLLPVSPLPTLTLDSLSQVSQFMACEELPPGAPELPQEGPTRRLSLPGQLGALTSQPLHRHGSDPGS

Row | Structure (SMILES) | IC50 (H3K9me2 in HCT116 cells) | IC50 (hERG potassium channels; [1]) | IC50 (hERG potassium channels; hERG IC50, SyncroPatch) | IC50 (human EHMT1 982-1266) | IC50 (human EHMT2 913-1193)
1 | CNc1cc(C)nc(Nc2cc3c(c(C4=CCNCCC4)c2)OCC3)n1 [Compound 110, N4,6-dimethyl-N2-[7-(2,3,4,7-tetrahydro-1H-azepin-5-yl)-2,3-dihydrobenzofuran-5-yl]pyrimidine-2,4-diamine] | < 100 nM | > 10000 nM | > 10000 nM | < 100 nM | < 100 nM
2 | CNc1cc(C)nc(Nc2cc3c(c(C4=CCN(C)CCC4)c2)OCC3)n1 [Compound 111, N4,6-dimethyl-N2-[7-(1-methyl-2,3,4,7-tetrahydroazepin-5-yl)-2,3-dihydrobenzofuran-5-yl]pyrimidine-2,4-diamine] | < 100 nM | > 10000 nM | > 10000 nM | < 100 nM | < 100 nM
3 | CNc1cc(C)nc(Nc2cc3c(c(OCCCN4CCCC4)c2)OCCC3)n1 [Compound 113, N4,6-dimethyl-N2-[8-(3-pyrrolidin-1-ylpropoxy)chroman-6-yl]pyrimidine-2,4-diamine] | 100 to 500 nM |  | < 2000 nM | 100 to 500 nM | 500 to 2000 nM
4 | CNc1cc(C)nc(Nc2cc(OCCCN3CCCC3)c3c(c2)OCO3)n1 [Compound 118, N4,6-dimethyl-N2-[7-(3-pyrrolidin-1-ylpropoxy)-1,3-benzodioxol-5-yl]pyrimidine-2,4-diamine] | 100 to 500 nM |  | 5000 to 10000 nM | 100 to 500 nM | 500 to 2000 nM
5 | CNc1cc(C)nc(Nc2cc(OCCCN3CCCC3)c3c(c2)OCCO3)n1 [Compound 122, N4,6-dimethyl-N2-[5-(3-pyrrolidin-1-ylpropoxy)-2,3-dihydro-1,4-benzodioxin-7-yl]pyrimidine-2,4-diamine] | 100 to 500 nM |  | 2000 to 5000 nM | 100 to 500 nM | 100 to 500 nM
6 | CNc1cc(C)nc(Nc2cc3c(c(C4=CCNCCC4)c2)OCCO3)n1 [Compound 130, N4,6-dimethyl-N2-[5-(2,3,4,7-tetrahydro-1H-azepin-5-yl)-2,3-dihydro-1,4-benzodioxin-7-yl]pyrimidine-2,4-diamine] | < 100 nM |  | 2000 to 5000 nM | < 100 nM | < 100 nM
7 | CNc1cc(C)nc(Nc2cc3c(c(C4=CCN(C)CCC4)c2)OCCO3)n1 [Compound 131, N4,6-dimethyl-N2-[5-(1-methyl-2,3,4,7-tetrahydroazepin-5-yl)-2,3-dihydro-1,4-benzodioxin-7-yl]pyrimidine-2,4-diamine] | < 100 nM |  | 5000 to 10000 nM | < 100 nM | 100 to 500 nM
8 | CNc1cc(C)nc(Nc2cc3c(c(C4=CCNCCC4)c2)OCO3)n1 [Compound 137, N4,6-dimethyl-N2-[7-(2,3,4,7-tetrahydro-1H-azepin-5-yl)-1,3-benzodioxol-5-yl]pyrimidine-2,4-diamine] | < 100 nM |  | 5000 to 10000 nM | < 100 nM | < 100 nM
9 | CNc1cc(C)nc(Nc2cc3c(c(C4=CCNCCC4)c2)OC(F)(F)O3)n1 [Compound 142, N2-[2,2-difluoro-7-(2,3,4,7-tetrahydro-1H-azepin-5-yl)-1,3-benzodioxol-5-yl]-N4,6-dimethyl-pyrimidine-2,4-diamine] | 100 to 500 nM |  | < 2000 nM | < 100 nM | < 100 nM
10 | CNc1cc(C)nc(Nc2cc3c(c(C4=CCNCCC4)c2)OCCO3)c1 [Compound 144, N4,6-dimethyl-N2-[5-(2,3,4,7-tetrahydro-1H-azepin-5-yl)-2,3-dihydro-1,4-benzodioxin-7-yl]pyridine-2,4-diamine] | 100 to 500 nM |  | > 10000 nM | 100 to 500 nM | 100 to 500 nM
11 | CNc1cc(C)nc(Nc2cc3c(c([C@H]4C[C@H]5CNC[C@H]5C4)c2)OCC3)n1 [Compound 157, N2-[7-(1,2,3,3a,4,5,6,6a-octahydrocyclopenta[c]pyrrol-5-yl)-2,3-dihydrobenzofuran-5-yl]-N4,6-dimethyl-pyrimidine-2,4-diamine] | 100 to 500 nM |  | > 10000 nM | 100 to 500 nM | 100 to 500 nM
12 | CNc1cc(C)nc(Nc2cc3c(c(C4=CCNCCC4)c2Cl)OCO3)n1 [Compound 160, N2-[6-chloro-7-(2,3,4,7-tetrahydro-1H-azepin-5-yl)-1,3-benzodioxol-5-yl]-N4,6-dimethyl-pyrimidine-2,4-diamine] | < 100 nM |  | 5000 to 10000 nM | < 100 nM | < 100 nM
13 | CNc1cc(C)nc(Nc2cc3c(c(C4=CCNCCC4)c2Cl)OCCO3)n1 [Compound 166, N2-[6-chloro-5-(2,3,4,7-tetrahydro-1H-azepin-5-yl)-2,3-dihydro-1,4-benzodioxin-7-yl]-N4,6-dimethyl-pyrimidine-2,4-diamine] | < 100 nM |  | < 2000 nM | < 100 nM | < 100 nM
14 | CNc1cc(C)nc(Nc2cc3c(c(C4=CCNCCC4)c2F)OCC32CC2)n1 [Compound 172] | < 100 nM |  | 2000 to 5000 nM | < 100 nM | < 100 nM
15 | CNc1cc(C)nc(Nc2cc3c(c(C4=CCNCCC4)c2Cl)OCCC3)n1 [Compound 175] | < 100 nM |  | 5000 to 10000 nM | < 100 nM | < 100 nM
16 | CNc1cc(C)nc(Nc2cc3c(c(C4=CCN(C)CCC4)c2Cl)OCCC3)n1 [Compound 176] | < 100 nM |  | 2000 to 5000 nM | < 100 nM | < 100 nM
17 | CNc1cc(C)nc(Nc2cc3c(c(C4=CCNCC(O)C4)c2F)OCC3)n1 (stereo not drawn) [Compound 179, 5-[6-fluoro-5-[[4-methyl-6-(methylamino)pyrimidin-2-yl]amino]-2,3-dihydrobenzofuran-7-yl]-2,3,4,7-tetrahydro-1H-azepin-3-ol] | < 100 nM |  | > 10000 nM | < 100 nM | < 100 nM
18 | CNc1cc(C)nc(Nc2cc3c(c(C4=CCN(C)CC(O)C4)c2F)OCC3)n1 (stereo not drawn) [Compound 180] | < 100 nM |  | > 10000 nM | < 100 nM | < 100 nM
19 | CNc1cc(C)nc(Nc2c(F)c3c(c(C4=CCNCCC4)c2F)OCC3)n1 [Compound 187] | < 100 nM |  | > 10000 nM | < 100 nM | 100 to 500 nM
20 | CNc1cc(C)nc(Nc2cc3c(c(C4=CCNCCC4)c2C)OCC3)n1 [Compound 188, N4,6-dimethyl-N2-[6-methyl-7-(2,3,4,7-tetrahydro-1H-azepin-5-yl)-2,3-dihydrobenzofuran-5-yl]pyrimidine-2,4-diamine] | < 100 nM |  | > 10000 nM | < 100 nM | < 100 nM
21 | CNc1cc(C)nc(Nc2cc3c(c(C4=CCNCCC4)c2Cl)OCC3)n1 [Compound 189, N2-[6-chloro-7-(2,3,4,7-tetrahydro-1H-azepin-5-yl)-2,3-dihydrobenzofuran-5-yl]-N4,6-dimethyl-pyrimidine-2,4-diamine] | < 100 nM |  | > 10000 nM | < 100 nM | < 100 nM
22 | CNc1cc(C)nc(Nc2cc3c(c(C4=CCN(C)CCC4)c2F)OCCC3)n1 [Compound 190] | < 100 nM |  | 5000 to 10000 nM | < 100 nM | < 100 nM
23 | CNc1cc(C)nc(Nc2cc3c(c(C4=CCNCCC4)c2F)OCCO3)n1 [Compound 191] | < 100 nM |  | 2000 to 5000 nM | < 100 nM | < 100 nM
24 | CNc1cc(C)nc(Nc2cc3c(c(C4=CCNCCC4)c2F)OCCC3)n1 [Compound 193, N2-[7-fluoro-8-(2,3,4,7-tetrahydro-1H-azepin-5-yl)chroman-6-yl]-N4,6-dimethyl-pyrimidine-2,4-diamine] | < 100 nM |  | 5000 to 10000 nM | < 100 nM | < 100 nM
25 | CCN1CC=C(c2c(F)c(Nc3nc(C)cc(NC)n3)cc3c2OCC3)CCC1 [Compound 201] | < 100 nM |  | 5000 to 10000 nM | < 100 nM | < 100 nM
26 | COCCNc1cc(C)nc(Nc2cc3c(c(C4=CCNCCC4)c2F)OCC3)n1 [Compound 289, N2-[6-fluoro-7-(2,3,4,7-tetrahydro-1H-azepin-5-yl)-2,3-dihydrobenzofuran-5-yl]-N4-(2-methoxyethyl)-6-methyl-pyrimidine-2,4-diamine] | < 100 nM |  | > 10000 nM | < 100 nM | < 100 nM
27 | COCCNc1cc(C)nc(Nc2cc3c(c(C4=CCN(C)CCC4)c2F)OCC3)n1 [Compound 290] | < 100 nM |  | > 10000 nM | < 100 nM | 100 to 500 nM
28 | Cc1cc(NCC(F)(F)F)nc(Nc2cc3c(c(C4=CCNCCC4)c2)OCC3)n1 [Compound 322] | 100 to 500 nM |  | 2000 to 5000 nM | < 100 nM | 100 to 500 nM
